We go through six compounds from ChEMBL document CHEMBL1145678, “Histamine-release effectors from Angelica dahurica var. dahurica root” (1997).

In test [1] the test system is Mus musculus. The test can be described thus: Effect on compound 48/80-induced histamine level in ddY mouse peritoneal cavity fluid assessed as histamine release at 10 mg/kg, ip administered 15 mins before compound 48/80 challenge measured after 10 mins by fluorometric assay relative to control. The format is functional. To be noted: route intraperitoneal.
For test [2], the system named is Mus musculus. The test can be described thus: Effect on compound 48/80-induced histamine level in ddY mouse peritoneal cavity fluid assessed as histamine release at 25 mg/kg, ip administered 15 mins before compound 48/80 challenge measured after 10 mins by fluorometric assay relative to control. The format is functional. The settings on record: route intraperitoneal.

Regarding `COc1c2ccoc2c(OC[C@@H](OC(C)=O)C(C)(C)O)c2oc(=O)ccc12`, the results for the Activity in the test on Mus musculus [1] and in the test on Mus musculus [2] were 93.2% and 151%, respectively.

Take `COc1c2ccoc2cc2oc(=O)ccc12` [BERGAPTEN]: the figures for the Activity with Mus musculus [1] and in the test with Mus musculus [2] were 108.2% and 55.4%, respectively.

In the case of `COc1c2ccoc2c(OC[C@@H](O)C(C)(C)O)c2oc(=O)ccc12` [BYAKANGELICIN], the Activity is 105.4% with Mus musculus [1] and 57% in the test on Mus musculus [2].

On to `CC(C)(O)[C@H](O)COc1c2ccoc2cc2oc(=O)ccc12` [OXYPEUCEDANIN HYDRATE], for which the figures for the Activity in the test with Mus musculus [1] and with Mus musculus [2] were 114.8% and 69.1%, respectively.

Take `CC1(C)O[C@H]1COc1c2ccoc2cc2oc(=O)ccc12` [OXYPEUCEDANIN]: the Activity was 142.6% in the test on Mus musculus [1] and 136.1% in the test with Mus musculus [2].

Consider `COc1c2ccoc2c(OCC=C(C)C)c2oc(=O)ccc12` [PHELLOPTERIN], for which the Activity is given as 109.8% in the test on Mus musculus [1] and 137.7% in the test on Mus musculus [2].
